From US9708314B2, “Heterocyclic amide compound” (NISSAN CHEMICAL INDUSTRIES, LTD., priority 2013, dated 2017)

Assays:
Assay type in all cases: in vivo
[1] = tested on: Alopecurus myosuroides; test: Test Example 4: herbicidal effect by application to foliage (diluvial soil, plastic box); conditions: 320 g/ha; for J (Alopecurus myosuroides) herbicidal effect grade: foliage application; for herbicidal effect, J (Alopecurus myosuroides): application to foliage
How it was run: (§1)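 Greenhouse plants (25° C. to 30° C., 14 d, diluvial soil) receive a foliar spray of water-diluted emulsifiable formulation at defined g/ha. Grading after 3 weeks uses a six-step herbicidal-ratio scale, with 4 covering 70% to <90% and 1 covering 5% to <20%.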

[2] = tested on: Chenopodium album; test: as above; conditions: 320 g/ha; for O (Chenopodium album) herbicidal effect grade: foliage application; for herbicidal effect, O (Chenopodium album): application to foliage
How it was run: as §1

[3] = tested on: Amaranthus retroflexus; test: as above; conditions: 320 g/ha; for N (Amaranthus retroflexus) herbicidal effect grade: foliage application; for herbicidal effect, N (Amaranthus retroflexus): application to foliage
How it was run: as §1

[4] = tested on: Veronica persica; test: as above; conditions: 320 g/ha; for R (Veronica persica) herbicidal effect grade: foliage application; for herbicidal effect, R (Veronica persica): application to foliage
How it was run: as §1

[5] = tested on: Stellaria media; test: as above; conditions: 320 g/ha; for P (Stellaria media) herbicidal effect grade: foliage application; for herbicidal effect, P (Stellaria media): application to foliage
How it was run: as §1

[6] = tested on: Lolium multiflorum Lam.; test: as above; conditions: 320 g/ha; for K (Lolium multiflorum Lam.) herbicidal effect grade: foliage application; for herbicidal effect, K (Lolium multiflorum Lam.): application to foliage
How it was run: as §1

[7] = tested on: Digitaria ciliaris; test: as above; conditions: 320 g/ha; for F (Digitaria ciliaris) herbicidal effect grade: foliage application; for herbicidal effect, F (Digitaria ciliaris): application to foliage
How it was run: as §1

[8] = tested on: Abutilon theophrasti; test: as above; conditions: 320 g/ha; for M (Abutilon theophrasti) herbicidal effect grade: foliage application; for herbicidal effect, M (Abutilon theophrasti): application to foliage
How it was run: as §1

[9] = tested on: Avena fatua; test: as above; conditions: 320 g/ha; for I (Avena fatua) herbicidal effect grade: foliage application; for herbicidal effect, I (Avena fatua): application to foliage
How it was run: as §1

[10] = tested on: Apera spica-venti.; test: as above; conditions: 320 g/ha; for L (Apera spica-venti.) herbicidal effect grade: foliage application; for herbicidal effect, L (Apera spica-venti.): application to foliage
How it was run: as §1

[11] = tested on: Setaria viridis; test: as above; conditions: 320 g/ha; for G (Setaria viridis) herbicidal effect grade: foliage application; for herbicidal effect, G (Setaria viridis): application to foliage
How it was run: as §1

[12] = tested on: Echinochloa crus-galli var. crus-galli; test: as above; conditions: 320 g/ha; for H (Echinochloa crus-galli var. crus-galli) herbicidal effect grade: foliage application; for herbicidal effect, H (Echinochloa crus-galli var. crus-galli): application to foliage
How it was run: as §1

[13] = tested on: Monochoria vaginalis; test: Test Example 2: herbicidal activity, application during weed generation in submerged conditions; conditions: Eighteenth Table; application herbicide amount 320 g/ha
How it was run: (§2)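 Seeds were sown together in alluvial soil kept under 4 cm of water and grown at 25 °C to 30 °C. Once plants reached the one- to two-leaf stage, the diluted emulsion was applied to the water surface at a predetermined g/ha amount, and effects were rated 0–5 after three weeks.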

[14] = tested on: Echinochloa oryzacola Vasing.; test: as above; conditions: Eighteenth Table; application herbicide amount 320 g/ha
How it was run: as §2

[15] = tested on: Scirpus juncoides; test: as above; conditions: Eighteenth Table; application herbicide amount 320 g/ha
How it was run: as §2

| Compound | J (Alopecurus myosuroides) herbicidal effect grade [1] | O (Chenopodium album) herbicidal effect grade [2] | N (Amaranthus retroflexus) herbicidal effect grade [3] | R (Veronica persica) herbicidal effect grade [4] | P (Stellaria media) herbicidal effect grade [5] | C (Monochoria vaginalis) herbicidal ratio grade [13] | A (Echinochloa oryzicola Vasing.) herbicidal ratio grade [14] | B (Scirpus juncoides) herbicidal ratio grade [15] | herbicidal effect, J (Alopecurus myosuroides) [1] | herbicidal effect, O (Chenopodium album) [2] | herbicidal effect, N (Amaranthus retroflexus) [3] | herbicidal effect, R (Veronica persica) [4] | herbicidal effect, P (Stellaria media) [5] | herbicidal effect, K (Lolium multiflorum Lam.) [6] | herbicidal effect, F (Digitaria ciliaris) [7] | herbicidal effect, M (Abutilon theophrasti) [8] | herbicidal effect, I (Avena fatua) [9] | herbicidal effect, L (Apera spica-venti.) [10] | herbicidal effect, G (Setaria viridis) [11] | herbicidal effect, H (Echinochloa crus-galli var. crus-galli) [12] | also measured |
| --- | --- | --- | --- | --- | --- | --- | --- | --- | --- | --- | --- | --- | --- | --- | --- | --- | --- | --- | --- | --- | --- |
| COc1cc(OC)cc(-c2nnc3c(C(=O)Nc4nnnn4C)ccc(C(F)(F)F)n23)c1 [2-063] | 3 (Herbicidal ratio of 40% or more and less than 70%) | 5 (Herbicidal ratio of 90% or more (almost completely withered)) | 5 (Herbicidal ratio of 90% or more (almost completely withered)) | 5 (Herbicidal ratio of 90% or more (almost completely withered)) | 5 (Herbicidal ratio of 90% or more (almost completely withered)) | 5 (Herbicidal ratio of 90% or more (almost completely withered)) | 5 (Herbicidal ratio of 90% or more (almost completely withered)) | 4 (Herbicidal ratio of 70% or more and less than 90%) | – | – | – | – | – | – | – | – | – | – | – | – | K (Lolium multiflorum Lam.) herbicidal effect grade [6]: 3 (Herbicidal ratio of 40% or more and less than 70%); F (Digitaria ciliaris) herbicidal effect grade [7]: 5 (Herbicidal ratio of 90% or more (almost completely withered)); M (Abutilon theophrasti) herbicidal effect grade [8]: 5 (Herbicidal ratio of 90% or more (almost completely withered)); I (Avena fatua) herbicidal effect grade [9]: 4 (Herbicidal ratio of 70% or more and less than 90%); L (Apera spica-venti.) herbicidal effect grade [10]: 3 (Herbicidal ratio of 40% or more and less than 70%); G (Setaria viridis) herbicidal effect grade [11]: 5 (Herbicidal ratio of 90% or more (almost completely withered)); H (Echinochloa crus-galli var. crus-galli) herbicidal effect grade [12]: 5 (Herbicidal ratio of 90% or more (almost completely withered)) |
| Cn1nnnc1NC(=O)c1ccc(C(F)(F)F)n2c(=O)n(C)nc12 [6-002] | – | – | – | – | – | 3 (Herbicidal ratio of 40% or more and less than 70%) | 3 (Herbicidal ratio of 40% or more and less than 70%) | 2 (Herbicidal ratio of 20% or more and less than 40%) | 0 (Herbicidal ratio of 5% or less (almost no effect)) | 5 (Herbicidal ratio of 90% or more (almost completely withered)) | 5 (Herbicidal ratio of 90% or more (almost completely withered)) | 4 (Herbicidal ratio of 70% or more and less than 90%) | 5 (Herbicidal ratio of 90% or more (almost completely withered)) | 0 (Herbicidal ratio of 5% or less (almost no effect)) | 4 (Herbicidal ratio of 70% or more and less than 90%) | 5 (Herbicidal ratio of 90% or more (almost completely withered)) | 1 (Herbicidal ratio of 5% or more and less than 20%) | 0 (Herbicidal ratio of 5% or less (almost no effect)) | 3 (Herbicidal ratio of 40% or more and less than 70%) | 5 (Herbicidal ratio of 90% or more (almost completely withered)) | – |
| COc1ccc(Cc2nnc3c(C(=O)Nc4nnnn4C)ccc(C(F)(F)F)n23)cc1 [2-065] | 3 (Herbicidal ratio of 40% or more and less than 70%) | 5 (Herbicidal ratio of 90% or more (almost completely withered)) | 5 (Herbicidal ratio of 90% or more (almost completely withered)) | 5 (Herbicidal ratio of 90% or more (almost completely withered)) | 5 (Herbicidal ratio of 90% or more (almost completely withered)) | 4 (Herbicidal ratio of 70% or more and less than 90%) | 5 (Herbicidal ratio of 90% or more (almost completely withered)) | 4 (Herbicidal ratio of 70% or more and less than 90%) | – | – | – | – | – | – | – | – | – | – | – | – | K (Lolium multiflorum Lam.) herbicidal effect grade [6]: 3 (Herbicidal ratio of 40% or more and less than 70%); F (Digitaria ciliaris) herbicidal effect grade [7]: 5 (Herbicidal ratio of 90% or more (almost completely withered)); M (Abutilon theophrasti) herbicidal effect grade [8]: 5 (Herbicidal ratio of 90% or more (almost completely withered)); I (Avena fatua) herbicidal effect grade [9]: 4 (Herbicidal ratio of 70% or more and less than 90%); L (Apera spica-venti.) herbicidal effect grade [10]: 4 (Herbicidal ratio of 70% or more and less than 90%); G (Setaria viridis) herbicidal effect grade [11]: 5 (Herbicidal ratio of 90% or more (almost completely withered)); H (Echinochloa crus-galli var. crus-galli) herbicidal effect grade [12]: 5 (Herbicidal ratio of 90% or more (almost completely withered)) |
| CN(c1nnc2c(C(=O)Nc3nnnn3C)ccc(C(F)(F)F)n12)C1CCCCC1 [2-083] | – | – | – | – | – | 3 (Herbicidal ratio of 40% or more and less than 70%) | 3 (Herbicidal ratio of 40% or more and less than 70%) | 3 (Herbicidal ratio of 40% or more and less than 70%) | 1 (Herbicidal ratio of 5% or more and less than 20%) | 5 (Herbicidal ratio of 90% or more (almost completely withered)) | 5 (Herbicidal ratio of 90% or more (almost completely withered)) | 4 (Herbicidal ratio of 70% or more and less than 90%) | 4 (Herbicidal ratio of 70% or more and less than 90%) | 1 (Herbicidal ratio of 5% or more and less than 20%) | 5 (Herbicidal ratio of 90% or more (almost completely withered)) | 5 (Herbicidal ratio of 90% or more (almost completely withered)) | 2 (Herbicidal ratio of 20% or more and less than 40%) | 1 (Herbicidal ratio of 5% or more and less than 20%) | 4 (Herbicidal ratio of 70% or more and less than 90%) | 5 (Herbicidal ratio of 90% or more (almost completely withered)) | – |
| C=CCN(C)c1nnc2c(C(=O)Nc3nnnn3C)ccc(C(F)(F)F)n12 [2-100] | – | – | – | – | – | 4 (Herbicidal ratio of 70% or more and less than 90%) | 4 (Herbicidal ratio of 70% or more and less than 90%) | 3 (Herbicidal ratio of 40% or more and less than 70%) | 2 (Herbicidal ratio of 20% or more and less than 40%) | 5 (Herbicidal ratio of 90% or more (almost completely withered)) | 5 (Herbicidal ratio of 90% or more (almost completely withered)) | 5 (Herbicidal ratio of 90% or more (almost completely withered)) | 5 (Herbicidal ratio of 90% or more (almost completely withered)) | 3 (Herbicidal ratio of 40% or more and less than 70%) | 5 (Herbicidal ratio of 90% or more (almost completely withered)) | 5 (Herbicidal ratio of 90% or more (almost completely withered)) | 3 (Herbicidal ratio of 40% or more and less than 70%) | 4 (Herbicidal ratio of 70% or more and less than 90%) | 4 (Herbicidal ratio of 70% or more and less than 90%) | 5 (Herbicidal ratio of 90% or more (almost completely withered)) | – |
